In BindingDB's records for doi:10.7270/Q2T72FW8 (Broad Institute, 2010):

Molecular target: T1, S-ribosylhomocysteine lyase (Vibrio harveyi, UniProt B0LUE4)
T1 sequence (B0LUE4 whole entry): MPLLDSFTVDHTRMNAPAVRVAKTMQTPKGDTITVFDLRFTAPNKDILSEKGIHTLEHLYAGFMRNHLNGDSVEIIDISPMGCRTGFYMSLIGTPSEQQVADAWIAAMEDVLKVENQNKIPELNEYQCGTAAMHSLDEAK
Assay: Vibrio harveyi growth inhibition, confirmation, counter-screen for AI-2 quorum sensing modulator project, absorbance, dose retest (AID 2725)

Point of comparison: COc1cc(NC(=O)CN2C(=O)NC(c3ccccc3)(c3ccccc3)C2=O)cc(OC)c1 [MLS001176525], EC50 13.7 µM. Against it:
- C=Cn1c(C(=O)O)ccc1-c1ccc(CC)cc1 — higher, > 160 µM
- CCc1ccc(S(=O)(=O)Nc2ccc(Br)cn2)cc1 [MLS001211346] — higher, > 160 µM
- CCCc1ccc(S(=O)(=O)N(C)S(=O)(=O)c2ccc(F)cc2)cc1 [N-(4-fluorophenyl)sulfonyl-N-methyl-4-propylbenzenesulfonamide] — 3-fold lower, 4.55 µM
- CN(C)S(=O)(=O)c1ccc(NC(=S)NC(=O)Cc2ccccc2)cc1 [N-[[4-(dimethylsulfamoyl)phenyl]carbamothioyl]-2-phenyl-ethanamide] — higher, > 160 µM
- Cc1cccc(NS(=O)(=O)c2ccc(Oc3ccccc3)cc2)n1 [SMR000071466] — higher, > 160 µM
- Cn1cnc(S(=O)(=O)Nc2ccc(OC(F)(F)F)cc2)c1 [SMR000314513] — higher, > 160 µM
